# Tests used:
# GABAA receptor α1β2γ2 = biological target: T1, GABAA receptor α1β2γ2 (Homo sapiens, UniProt P14867+P18507); assay: Two-electrode voltage-clamp potentiation of GABA EC10 current in Xenopus oocytes, GABAA1; format: cell-based; details: percentage potentiation of GABA EC10 current divided by that of diazepam
# T1 construct: expressed in transfected cells; host or cells: Xenopus laevis oocytes injected with cRNA
# Procedure: GABAA receptors were heterologously expressed in Xenopus oocytes by injecting cRNA corresponding to human α1, α2, α3, α5, β2, P3 and γ2 subunits of the GABAA receptor genes. The specific subunit combinations (subtypes) were as follows: α1β2γ2, α2β3γ2, α3β3γ2, and α5β3γ2. The EC10 of GABA is approximated for each cell. Stability of GABA-mediated (EC10) current is established. Modulatory effect of test compound is determined and compared across subtypes. […] Thus, the assay can characterize modulatory effects and determine subtype selectivity of test compounds on major subtypes of GABAA receptors.
# Xenopus laevis frogs (Xenopus I, Kalamazoo, Mich.) were anesthetized using 0.15% tricaine. Surgically removed ovarian lobes were teased out in OR2 solution (82 NaCl, 2.5 KCl, 5 HEPES, 1.5 NaH2PO4, 1 MgCl2, 0.1 EDTA, in mM, pH 7.4). The oocytes were defolliculated by incubation in 25 mL OR2 containing 0.2% collagenase 1A (SIGMA) two times for about 60 minutes on a platform shaker and stored in Leibovitz's L-15 medium. Oocytes were injected the following day in 0.5× Leibovitz's L-15 medium containing […] gentamycin, 10 units/ml penicillin, and […] streptomycin.
# Capped cRNAs from the linearized vectors containing human α1, β2 and γ2 subunits of the GABAA receptor genes were mixed in ratio of […]. Oocytes were injected with 25-50 nL of mixed RNA with an appx molar ratio for α1, β2, and γ2 as 1:1:10. Oocyte recordings were done 2-10 days after injection. The same methods apply to subtypes derived from α2β3γ2, α3β3γ2, and α5β3γ2, except for 1:1:1 ratio was used for α, β, and γ subunits.
# All measurements were done in a medium containing ND-96 (96 NaCl, 2 KCl, 1.8 CaCl2.2H2O, 1 MgCl2.6H2O, 5 HEPES, in mM, pH 7.5). Two-electrode voltage-clamp recording was carried out using OpusXpress amplifier (Axon Instruments, Foster City, Calif.), which allows simultaneous recording from 8 oocytes. Oocytes were impaled with two electrodes of 1-2 MΩ tip resistance when filled with 3M KCl. Recordings were begun when membrane potential became stable at potentials negative to −50-−60 mV. Membrane potential was held at −60 mV. […] The concentration of GABA corresponded to the EC10 value calculated for each oocyte. The modulator pulses started 30 s before the GABA pulse so as to allow preincubation with the modulator. A set of 3 pulses with just GABA without modulator was given prior to the modulator-containing pulses to define the baseline GABA response. Two oocytes per each experiment were dedicated to observe the effect of diazepam on GABA response to ensure the presence of γ2 subunit in the GABAA pentameric complex, which imparts diazepam sensitivity to the complex.
# Current amplitude (i) was measured from baseline to peak using Clampfit (Axon Inst., Foster City, Calif.). Potentiation was calculated as percent change from the baseline GABA current flux 100×(imod/icontrol)−1) where imod=current mediated by modulator+GABA and icontrol=current mediated by GABA alone. […] Similarly, a value of −50% potentiation means the presence of modulator caused a 50% decrease in the control current. Various other data shown here were fitted and plotted using GraphPad Prism (GraphPad Software, Inc. San Diego, Calif.). The percentage potentiation was converted to relative potentiation by dividing it with percentage potentiation value obtained from the same assay with diazepam as a control.
# [1] = biological target: T2, GABAA2 receptors (α2, β3, γ2 receptor subunits transfected into Sf9 cells) (Homo sapiens, UniProt P18507+P47869); assay: GABAA2 Binding Method ([3H]-Flunitrazepam displacement); details: [3H]-Flunitrazepam ~2 nM, α2β3γ2 Sf9 membranes, 1 hr at 4° C.
# T2 construct: host or cells: Sf9 cells (membranes)
# Procedure: In some embodiments, the binding test is directed to a subtype of GABAA receptors, such as GABAA1 receptors (i.e., those containing the α1 subunit), GABAA2 receptors (i.e., those containing the α2 subunit), GABAA3 receptors (i.e., those containing the α3 subunit) and GABAA5 receptors (i.e., those containing the α5 subunit).
# [^3H]-Flunitrazepam (Cat #NET567): Prepare 10× stock=20 nM, [F} in assay=˜2 nM
# 1. […] Add 5 ul of 30 uM flumazenil to wells 12 D-E for 50% control wells.
# 5. Add 25 μl [^3H]-Flunitrazepam (Automation Program 6). Incubate for 1 hr at 4° C.
# 6. Collect membranes on a cell harvester onto GF/B filter plates (pre-wet with dH2O and wash 5×400 μl/well, with cold assay buffer. (First 3 washes are considered hot; last two are cold.)
# Data is analyzed by calculating percent of control, IC50, and Ki in an XLfit template. The following formula is used in the templates: […]
# T1 sequence (P14867 28-456): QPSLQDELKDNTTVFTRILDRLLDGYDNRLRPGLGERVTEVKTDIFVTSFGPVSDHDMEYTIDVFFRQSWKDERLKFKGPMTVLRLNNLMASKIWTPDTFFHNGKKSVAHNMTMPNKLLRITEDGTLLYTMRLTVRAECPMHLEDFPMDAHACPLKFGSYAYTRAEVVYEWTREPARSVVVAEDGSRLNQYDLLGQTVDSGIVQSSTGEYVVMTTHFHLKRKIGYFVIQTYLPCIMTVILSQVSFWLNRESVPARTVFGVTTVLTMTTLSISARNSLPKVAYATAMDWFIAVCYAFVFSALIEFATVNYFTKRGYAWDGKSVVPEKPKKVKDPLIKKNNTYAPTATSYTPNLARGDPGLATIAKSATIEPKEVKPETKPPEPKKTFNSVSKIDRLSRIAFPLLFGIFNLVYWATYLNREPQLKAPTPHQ
# T1 sequence (P47870 25-512 partner limits assumed): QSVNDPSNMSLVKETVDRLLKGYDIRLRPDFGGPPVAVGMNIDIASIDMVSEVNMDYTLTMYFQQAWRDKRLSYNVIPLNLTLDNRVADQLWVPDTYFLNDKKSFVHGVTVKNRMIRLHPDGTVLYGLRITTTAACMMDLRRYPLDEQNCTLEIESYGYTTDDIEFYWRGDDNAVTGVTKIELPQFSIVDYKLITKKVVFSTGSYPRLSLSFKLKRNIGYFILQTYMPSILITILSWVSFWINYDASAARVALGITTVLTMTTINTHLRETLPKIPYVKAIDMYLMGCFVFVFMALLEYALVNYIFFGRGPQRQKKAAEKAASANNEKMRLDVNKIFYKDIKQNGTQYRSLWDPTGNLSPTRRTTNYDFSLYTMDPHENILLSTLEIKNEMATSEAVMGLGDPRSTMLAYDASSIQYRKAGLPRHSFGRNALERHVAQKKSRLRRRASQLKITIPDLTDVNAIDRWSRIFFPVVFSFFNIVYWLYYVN
# T1 sequence (P18507 40-475): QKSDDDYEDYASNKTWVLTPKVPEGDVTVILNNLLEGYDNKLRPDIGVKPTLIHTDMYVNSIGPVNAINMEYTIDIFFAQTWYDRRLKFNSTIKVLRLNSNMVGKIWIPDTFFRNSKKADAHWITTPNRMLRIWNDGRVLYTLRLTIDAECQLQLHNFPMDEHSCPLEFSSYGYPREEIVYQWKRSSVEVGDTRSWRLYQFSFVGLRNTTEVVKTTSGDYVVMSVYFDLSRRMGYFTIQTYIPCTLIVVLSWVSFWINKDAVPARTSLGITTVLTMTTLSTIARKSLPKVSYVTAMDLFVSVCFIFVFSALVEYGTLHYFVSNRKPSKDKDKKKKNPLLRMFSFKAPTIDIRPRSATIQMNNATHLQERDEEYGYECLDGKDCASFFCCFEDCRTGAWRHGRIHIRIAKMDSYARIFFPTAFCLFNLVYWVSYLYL
# T2 sequence (P47869 29-451): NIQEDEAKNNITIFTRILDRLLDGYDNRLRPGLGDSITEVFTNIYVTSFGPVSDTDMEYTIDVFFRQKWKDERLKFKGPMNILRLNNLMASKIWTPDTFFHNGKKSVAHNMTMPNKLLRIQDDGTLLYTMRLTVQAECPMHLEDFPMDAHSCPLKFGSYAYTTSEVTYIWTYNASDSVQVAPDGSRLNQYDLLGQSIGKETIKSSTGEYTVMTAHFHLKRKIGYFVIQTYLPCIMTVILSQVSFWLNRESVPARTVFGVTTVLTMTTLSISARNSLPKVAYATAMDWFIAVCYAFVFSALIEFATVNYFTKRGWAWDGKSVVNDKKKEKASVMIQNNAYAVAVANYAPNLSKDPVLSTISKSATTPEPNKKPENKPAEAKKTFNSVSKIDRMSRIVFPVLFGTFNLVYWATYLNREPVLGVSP
# T2 sequence (P28472 26-473 partner): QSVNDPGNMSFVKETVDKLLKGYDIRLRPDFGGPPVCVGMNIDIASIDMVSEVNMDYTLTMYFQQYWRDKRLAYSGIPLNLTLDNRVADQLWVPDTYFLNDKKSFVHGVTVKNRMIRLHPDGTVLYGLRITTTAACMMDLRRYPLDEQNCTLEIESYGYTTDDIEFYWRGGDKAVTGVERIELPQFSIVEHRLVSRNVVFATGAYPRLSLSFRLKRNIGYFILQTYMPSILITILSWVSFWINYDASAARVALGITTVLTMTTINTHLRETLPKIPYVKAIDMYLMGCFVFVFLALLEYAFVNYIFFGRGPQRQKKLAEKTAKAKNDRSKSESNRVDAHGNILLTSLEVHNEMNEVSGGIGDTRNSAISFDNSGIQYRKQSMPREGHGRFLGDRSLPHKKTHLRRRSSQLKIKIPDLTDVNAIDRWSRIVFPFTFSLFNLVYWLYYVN
# T2 sequence (P18507 40-475): as the sequence (P18507 40-475) above
SMILES,Relative Potentiation for GABAA1 (GABAA receptor α1β2γ2),Ki [1] [nM]
"CCCN1Cc2nc3c(-c4cccc(OC)c4F)cccc3c(N)c2C1=O [9-amino-5-(2-fluoro-3-methoxyphenyl)-2-propyl-2,3-dihydro-1H-pyrrolo[3,4-b]quinolin-1-one]",0.2,11.5
"CCCN1Cc2nc3c(-c4cccnc4OCC)cccc3c(N)c2C1=O [9-amino-5-(2-ethoxypyridin-3-yl)-2-propyl-2,3-dihydro-1H-pyrrolo[3,4-b]quinolin-1-one]",0.56,15
"CCCN1Cc2nc3c(-c4cc(C)cnc4F)cccc3c(N)c2C1=O [9-amino-5-(2-fluoro-5-methylpyridin-3-yl)-2-propyl-2,3-dihydro-1H-pyrrolo[3,4-b]quinolin-1-one]",0.33,7.55
"CCCN1Cc2nc3c(-c4cc(F)ccc4C)cccc3c(N)c2C1=O [9-amino-5-(5-fluoro-2-methylphenyl)-2-propyl-2,3-dihydro-1H-pyrrolo[3,4-b]quinolin-1-one]",0.29,6.3
"CCCN1Cc2nc3c(-c4ccccc4C(F)(F)F)cccc3c(N)c2C1=O [9-amino-2-propyl-5-(2-(trifluoromethyl)phenyl)-2,3-dihydro-1H-pyrrolo[3,4-b]quinolin-1-one]",0.48,16.6
"COc1cccc(CN2Cc3nc4c(-c5cc(OC)ccc5OC)cccc4c(N)c3C2=O)c1 [9-amino-5-(2,5-dimethoxyphenyl)-2-(3-methoxybenzyl)-2,3-dihydro-1H-pyrrolo[3,4-b]quinolin-1-one]",0.25,26.9
"COc1ccc([C@@H](C)N2Cc3nc4c(-c5c(F)cccc5OC)cccc4c(N)c3C2=O)cc1 [9-amino-5-(2-fluoro-6-methoxyphenyl)-2-((R)-1-(4-methoxyphenyl)ethyl)-2,3-dihydro-1H-pyrrolo[3,4-b]quinolin-1-one]",−0.008,20.9
"COc1ccc(Cl)cc1-c1cccc2c(N)c3c(nc12)CN(C1CC1)C3=O [9-amino-5-(5-chloro-2-methoxyphenyl)-2-cyclopropyl-2,3-dihydro-1H-pyrrolo[3,4-b]quinolin-1-one]",0.19,8.95
"COc1ccncc1-c1cccc2c(N)c3c(nc12)CN(Cc1ccc2c(c1)OCO2)C3=O [9-amino-2-(benzo[d][1,3]dioxol-5-ylmethyl)-5-(4-methoxypyridin-3-yl)-2,3-dihydro-1H-pyrrolo[3,4-b]quinolin-1-one]",0.28,2.19
"CCCN1Cc2nc3c(-c4ccc(Cl)nc4C)cccc3c(N)c2C1=O [9-amino-5-(6-chloro-2-methylpyridin-3-yl)-2-propyl-2,3-dihydro-1H-pyrrolo[3,4-b]quinolin-1-one]",1.1,23.1
"CCCN1Cc2nc3c(-c4cnc(OC)nc4OC)c(F)ccc3c(N)c2C1=O [9-amino-5-(2,4-dimethoxypyrimidin-5-yl)-6-fluoro-2-propyl-2,3-dihydro-1H-pyrrolo[3,4-b]quinolin-1-one]",0.22,8.89
"CCCN1Cc2nc3c(-c4cc(OC)cc(OC)c4)cccc3c(N)c2C1=O [9-amino-5-(3,5-dimethoxyphenyl)-2-propyl-2,3-dihydro-1H-pyrrolo[3,4-b]quinolin-1-one]",0.6,46.7
"CCCN1Cc2nc3c(-c4cccc(F)c4OC)cccc3c(N)c2C1=O [9-amino-5-(3-fluoro-2-methoxyphenyl)-2-propyl-2,3-dihydro-1H-pyrrolo[3,4-b]quinolin-1-one]",,57
"CCCN1Cc2nc3c(-c4cccc(Cl)c4)cccc3c(N)c2C1=O [9-amino-5-(3-chlorophenyl)-2-propyl-2,3-dihydro-1H-pyrrolo[3,4-b]quinolin-1-one]",,76.5
"CCN1Cc2nc3c(-c4c(OC)cccc4OC)cccc3c(N)c2C1=O [9-amino-5-(2,6-dimethoxyphenyl)-2-ethyl-2,3-dihydro-1H-pyrrolo[3,4-b]quinolin-1-one]",,82.5
"Nc1c2c(nc3c(-c4cc(F)cc(F)c4)cccc13)CN(C1CCC1)C2=O [9-amino-2-cyclobutyl-5-(3,5-difluorophenyl)-2,3-dihydro-1H-pyrrolo[3,4-b]quinolin-1-one]",,39.3
"CCCN1Cc2nc3c(-c4cc(-c5ccncc5)ccc4OC)cccc3c(N)c2C1=O [9-amino-5-(2-methoxy-5-(pyridin-4-yl)phenyl)-2-propyl-2,3-dihydro-1H-pyrrolo[3,4-b]quinolin-1-one]",,51.1
"CCN1Cc2nc3c(-c4cccc(OC)c4F)c(F)ccc3c(N)c2C1=O [9-amino-2-ethyl-6-fluoro-5-(2-fluoro-3-methoxyphenyl)-2,3-dihydro-1H-pyrrolo[3,4-b]quinolin-1-one]",,5.29
"COc1ccc(CN2Cc3nc4c(-c5ccccc5C(F)(F)F)cccc4c(N)c3C2=O)cc1 [9-amino-2-(4-methoxybenzyl)-5-(2-(trifluoromethyl)phenyl)-2,3-dihydro-1H-pyrrolo[3,4-b]quinolin-1-one]",,34.1
"CCN1Cc2nc3c(-c4cccc(OC)c4OC)cccc3c(N)c2C1=O [9-amino-5-(2,3-dimethoxyphenyl)-2-ethyl-2,3-dihydro-1H-pyrrolo[3,4-b]quinolin-1-one]",,81.9
"COc1ccc(F)cc1-c1cccc2c(N)c3c(nc12)CN(C1CC1)C3=O [9-amino-2-cyclopropyl-5-(5-fluoro-2-methoxyphenyl)-2,3-dihydro-1H-pyrrolo[3,4-b]quinolin-1-one]",,73.4
"CCN1Cc2nc3c(-c4cnccc4OC)c(F)ccc3c(N)c2C1=O [Example 36, 9-Amino-2-ethyl-6-fluoro-5-(4-methoxypyridin-3-yl)-2,3-dihydropyrrolo[3,4-b]quinolin-1-one]",,2.43
"CCN1Cc2nc3c(-c4cnc(OC)nc4OC)c(F)ccc3c(N)c2C1=O [Example 34, 9-Amino-5-(2,4-dimethoxypyrimidin-5-yl)-2-ethyl-6-fluoro-2,3-dihydropyrrolo[3,4-b]quinolin-1-one]",,16.7
"CCCN1Cc2nc3c(-c4c(F)cccc4OC)c(F)ccc3c(N)c2C1=O [Example 55, 9-Amino-6-fluoro-5-(2-fluoro-6-methoxyphenyl)-2-propyl-2,3-dihydropyrrolo[3,4-b]quinolin-1-one]",,3.49
"COc1ccc(CN2Cc3nc4c(-c5ccc(C)nc5)cccc4c(N)c3C2=O)cc1 [9-amino-2-(4-methoxybenzyl)-5-(6-methylpyridin-3-yl)-2,3-dihydro-1H-pyrrolo[3,4-b]quinolin-1-one]",,60.5
"CCN1Cc2nc3c(-c4ccc(OC)cc4OC)cccc3c(N)c2C1=O [9-amino-5-(2,4-dimethoxyphenyl)-2-ethyl-2,3-dihydro-1H-pyrrolo[3,4-b]quinolin-1-one]",,99.1

# — patent US20080318943A1, “Compounds and Uses Thereof - 848” (ASTRAZENECA AB, priority 2007, published 2008)
